Measured values reported in US6689379B1, “Transdermal therapeutic system with neutralized acrylic adhesive patch” (priority 1999, dated 2004).

Experiment: EVA copolymer film permeation (modified Franz cell), release of active substance from pressure-sensitive adhesive film
Format: in vitro ADME
Settings: neutralization degrees 0 to 100% (KOH); EVA membrane; FIGS. 4, 5 and 6
Description: Examinations on the thermodynamics of a model of ethylene vinyl acetate (EVA) copolymer film permeation
For three basic pharmaceutical active agents, the release behaviour from an acid polyacrylate pressure-sensitive adhesive film in dependence from the neutralization of the adhesive and from the reagent used for this purpose was examined. All tests on EVA membrane were carried out with n=3 samples.
To this end, the active substance-containing pressure-sensitive adhesive films were stuck on an EVA film as carrier membrane, and the amount of active agent released over time through this membrane to an aqueous medium buffered to pH 5.5 and located on the opposite side was quantified by appropriate HPLC methods. […] Since in the embodiment examples the active substance represents the only component which is low-molecular and capable of migration, it is the tendency of exclusively this active substance to exudate from the polymer matrix of the pressure-sensitive adhesive and to migrate into the acceptor medium after passing through the EVA membrane which is recorded.
Independently of the permeation properties of human skin for such an active substance, the release tendency of the system in respect of the active substance as measured here is the most essential impetus for transdermal therapy by means of such a system. […]

In the case of `CCN(C)C(=O)Oc1cccc([C@H](C)N(C)C)c1` [rivastigmin], the “dependence of the permeated active substance amount / release rate on the neutralization degree” value is reported as “strong dependence of the effect from the neutralization degree”.
